# Data reported in publication PMC9962452, “Modified Linear Peptides Effectively Silence STAT-3 in Breast Cancer and Ovarian Cancer Cell Lines” (Pharmaceutics, 2023).
# Key:
# scrambled siRNA [1] = assay: SYBR green dye exclusion assay, binding of peptides to siRNA; settings: scrambled siRNA in normal saline, N/P 0.05 to 40, 30 min room temperature, triplicates, sigmoidal model, value is an N/P ratio
# Experimental: As previously reported, the binding affinity of selected peptides to siRNA was investigated using the SYBR green exclusion assay. The MLPs and scrambled siRNA were mixed in normal saline (in triplicates) with different N/P ratios ranging from 0.05 to 40. The mixture was incubated at room temperature for 30 min to ensure complete complexation of peptides and siRNA. After the incubation time, the complexes were transferred to a black 96-well plate. SYBR green dye solution for this assay was made by diluting 1 part of SYBR green dye with 10,000 parts of purified water. Then, 200 µL of the freshly made SYBR green dye dilution was added to each siRNA complex in the black 96-well plate. The plate was covered with aluminum foil before reading in a micro-plate reader that detected the fluorescent signal (485 nm excitation and 527 nm emission). […] The percentage of the siRNA complexed with the peptide was determined using the following equation: % siRNA bond to peptide=100−Fluorescence signal for complexed siRNA /Fluorescence signal for free siRNA×100 % siRNA bound to the peptide was plotted against a range of nitrogen to phosphate (N/P) ratios used in the experiment, and BR50 (the N/P ratio of the complex required to bind 50% of siRNA) was determined using a sigmoidal model. […]
# scrambled siRNA [2] = assay: Gel retardation / gel shifting assay, binding of peptides to siRNA; settings: 1% agarose, ethidium bromide, N/P 0 to 60, 30 min room temperature, bands quantified with Image Lab, value is an N/P ratio
# Experimental: In addition to the SYBR green dye exclusion assay described above, the binding affinity of the peptides to siRNA was also determined using the gel retardation/gel shifting assay. Briefly, the MLPs-siRNA complexes were prepared at different N to P ratios ranging from 0 to 60. The N/P ratio of zero represents free siRNA. The tubes containing complexes were incubated at room temperature for 30 min for complete complex formation. After this incubation time, the complexes were mixed with gel-loading dye. Each of the samples was loaded into the wells of 1% agarose gel with (1 μg/mL) ethidium bromide, and […] and 70 Volts were used to run the gel for 20 min. After the run, the gels were visualized under a Bio-Rad imager. The intensity of the bands was quantified by Image Lab software.
# To support the data obtained by the SYBR green dye exclusion assay, the binding affinity of the MLPs with siRNA was also determined by the gel retardation assay (Figure 2). For this purpose, the MLPs-siRNA complexes were made in microtubes using purified normal saline at different N to P ratios ranging from 0 to 60. The N to P ratio of 0 represents siRNA only, with no peptide. The solutions in microtubes were allowed to stay at room temperature for 30 min to confer complete complex formation via electrostatic interactions between the MLPs and siRNA. […]
# MDA-MB-231 cells = assay: Confocal microscopy of siRNA internalization; format: cell-based; settings: N/P ratio 40, 24 h, Alexa Fluor 488-labeled siRNA, comparable to Lipofectamine 2000
# Experimental: In order to visualize and locate the internalized siRNA, samples for confocal microscopy were prepared using MDA-MB-231 cells, adopting the protocol described previously by our lab. Briefly, sterile 6-well plates were used, and sterile coverslips were placed at the bottom of each well. MDA-MB-231 cells suspended in 2 mL of media were seeded in each well, and the plates were incubated in an incubator at standard growth conditions. After incubation, the cells were exposed to MLPs-fluorescent-labeled siRNA complexes at a N/P ratio of 40 using the same method described above for the FACS assay. The treated cells were again incubated for 24 h to allow for the internalization of siRNA. After overnight incubation, the media was drained from each well, and the cells were rigorously washed with HBSS three times, followed by fixation with 3.7% formaldehyde in the HBSS solution. Following fixation, the cells were treated with Texas Red for 1 h at room temperature to stain the cell membrane. After 1 h of staining with Texas Red, the cells were stained with DAPI overnight at room temperature in a dark environment to stain the nuclei. Following successful nuclei staining, the coverslips containing fixed stained cells were transferred to slides for viewing under a high-definition confocal microscope (Nikon A1 R). […]
# [3] = system: STAT3 in MDA-MB-231 cells; assay: Western blot of STAT3 protein after STAT3 siRNA delivery, MDA-MB-231; format: cell-based; settings: n = 3
# Experimental: The Western blot assay was used to evaluate the expression of STAT-3 protein in MDA-MB-231 cells using the protocol adopted from our previous study. Briefly, the cells were grown in T25 flasks and treated with MLP-siRNA complexes at N/P ratios of 20 and 40 for 48 h. Following treatment, the cells were harvested as pellets in microtubes and were lysed using RIPA lysis buffer supplanted with a protease inhibitor. The lysate was centrifuged for 15 min at 12,000 rpm at 4 °C to allow the separation of all cell proteins. The supernatant containing all cell proteins was separated in pre-cooled microtubes and the protein was quantified using the standard […].
# Following the quantification of protein, the samples representing 15 µg of protein were mixed with gel loading dye and loaded in the wells of pre-formed gels and the electrophoresis was carried out at 200 V for 40 min. After the complete run, the gels were transferred to the Western blotting membrane using the Trans-Blot® machine. After successfully transferring gels onto the membrane, the membrane was blocked in 5% Bovine Serum Albumin in TBS-T buffer consisting of 1X tris-buffered saline and 0.1% Tween 20. […] Finally, the membrane was visualized under the Bio-Rad Imager, and the bands were quantified using Image Lab software. […]
substance,measurement,setting,value
"AcNH-K(oleyl)-βA-βA-W4-βA-βA-R4-CONH2 [MLP4, oleic acid conjugated peptide, oleyl chain on the Lys side chain]",BC50 ± SD (N/P ratio required for 50% binding of siRNA),scrambled siRNA [1],0.963 ± 0.34
same,BC50 (from quantified gel bands),scrambled siRNA [2],0.9001
same,Internalization of siRNA seen by confocal microscopy,MDA-MB-231 cells,significant internalization of siRNA in the cytosol
same,Downregulation of STAT3 protein,"[3]; N/P ratio 20, 48 h",> 90%
same,Downregulation of STAT3 protein,"[3]; N/P ratio 40, 48 h, GAPDH housekeeping",> 90%
